Test system: Dog PRP (platelet aggregation)
Test: In-Vitro Platelet Aggregation in PRP (ADP-induced)
Format: cell-based
Settings: Canis lupus familiaris; dog platelet-rich plasma; ADP 50 um final concentration; 1 minute preincubation at 37° C.; read-out: Dog PRP IC50 or % Inh.
Protocol: In-Vitro Platelet Aggregation in PRP
Healthy male or female dogs were fasted for 8 hours prior to drawing blood; then 30 ml whole blood was collected using a butterfly needle and 30 cc plastic syringe with 3 ml of 0.129M buffered sodium citrate (3.8%). The syringe was rotated carefully as blood was drawn to mix the citrate. Platelet-rich plasma (PRP) was prepared by centrifugation at 975×g for 3.17 minutes at room temperature allowing the centrifuge to coast to a stop without braking. The PRP was removed from the blood with a plastic pipette and placed in a plastic capped, 50 mL Corning conical sterile centrifuge tube which was held at room temperature. Platelet poor plasma (PPP) was prepared by centrifuging the remaining blood at 2000×g for 15 minutes at room temperature allowing the centrifuge to coast to a stop without braking. The PRP was adjusted with PPP to a count of 2-3×10^8 platelets per mL. 400 uL of the PRP preparation and 50 uL of the compounds solution to be tested or saline were preincubated for 1 minute at 37° C. in a […].). 50 uL of adenosine 5' diphosphate (ADP) (50 um final concentration) was added to the cuvettes and the aggregation was monitored for 1 minute. […] Results are calculated as follows: Percent of control=[(maximal OD minus initial OD of compound) divided by (maximal OD minus initial OD of control saline)]×100. […]

Structure (SMILES)	IC50 [µM]
N=C(N)NCCCCCCCNC(=O)NC(CC(=O)O)c1cccnc1 (stereo not drawn) [Example 2, β-[[[[7-[[aminoiminomethyl]amino]heptyl]amino]carbonyl]amino]-3-pyridinepropanoic acid]	0.8
N=C(N)NCCCCCCCNC(=O)N[C@@H](CC(=O)O)C(=O)N[C@@H](Cc1ccccc1)C(=O)O [Example 4, N-[N-[[[[7-[[aminoiminomethyl]amino]heptyl]amino]carbonyl]amino]-L-α-aspartyl]-L-phenylalanine]	1.9

— US5614539A, “Urea compounds which are useful as platelet aggregation inhibitors” (G. D. Searle & Co., priority 1995, dated 1997)
